Key:
Cyp24 [1] = test: Cyp24 mRNA expression in colon of mice after a single oral dose; type: in vivo; conditions: 6 hrs; for increase in Cyp24 expression in the colon: relative to untreated mice
Procedure: (§1) Mice were decapitated 6 hrs later following light anesthesia under inhaled halothane. […] Tissue samples were flushed with ice-cold phosphate-buffered saline and immediately homogenized in 1 ml of TRIzol® reagent (Invitrogen Corp., Carlsbad, Calif.). Samples were then kept frozen at −86° C. prior to processing for RNA. For processing RNA, each TRIzol® homogenate was thawed at room temperature and 500 μl placed in a clean microfuge tube, mixed thoroughly with 100 μl chloroform for 15 sec and then centrifuged at 12,000×g for 15 min at 4° C. The upper aqueous phase was removed and mixed with 0.93 volumes of 75% EtOH. The mixture was then applied to an RNeasy spin column (Qiagen Inc., Germantown, Md.) and processed as described by the manufacturer with the exception that an additional wash with 2M NaCl/2 mM EDTA (pH 4.0) was included (Das et al. J Vet Diagn Invest. 2009; 21:771-778). RNA was eluted in 50 μl of water and the concentration obtained by UV spectrometry. One microgram of RNA was then used as a template for production of cDNA in a 20-μl reaction volume using random hexamers and Superscript III as described by the manufacturer (Invitrogen, Carlsbad, Calif.). Afterwards, samples were diluted to 100 μl final volume with TE buffer and stored at −20° C. prior to PCR analysis. Quantitative real-time RT-PCR was performed using a Stratagene Mx3005p cycler (Stratagene, La Jolla, Calif.) and PerfeCTa® SYBR® Green FastMix®, ROX reagent (Quanta Biosciences, Gaithersburg, Md.). Amplification of target cDNAs was accomplished with the following primers: Aliquots (8.3 ng) of cDNA were amplified under the following conditions: 95° C. for 30 sec, followed by 45 cycles of 95° C. for 1 sec and 57° C. for 30 sec. […] Oligonucleotides were obtained from Integrated DNA Technologies (Coralville, Iowa).

Cyp24 [2] = test: Cyp24 mRNA expression in duodenum of mice after a single oral dose; type: in vivo; conditions: for Cyp24 expression in the duodenum, induction over control mice: 24 pmol per os
Procedure: as §1

[3] = Hypercalcemic effect: plasma calcium in rats under continuous subcutaneous infusion; type: in vivo; conditions: for Plasma Calcium Mean ± SD: 12th day, in mg/dL (unit assumed); for Significantly greater than control? Duncan's Multiple Range Test: plasma calcium
Procedure: The pumps were filled aseptically with the appropriate dose of drug dissolved in propylene glycol. The pumps were surgically implanted under the skin on the dorsal neck and shoulder area aseptically. On the 12th day of infusion, rats were deeply anesthetized (isofluorane inhalation) and blood was collected by cardiac puncture for plasma calcium determination. The plasma calcium levels were determined by standard methods.

[4] = tested on: β-glucuronidase activity, duodenum lumen contents; test: β-glucuronidase cleavage in duodenum lumen contents, free 1,25-D3 by RIA; type: in vitro ADME, rats; conditions: 2100 pg added
Procedure: The proximal 25 cm of duodenum/jejunum, the caudal 12 cm of ileum, and the cranial 12 cm of colon were removed. The contents from the lumen of each section were flushed with 3 ml water, collected, and pooled. Three-ml aliquots of intestinal contents were placed into tubes. To the tubes, either 2100 pg (3.53 pmoles) β-gluc-1,25-D3 was added and incubated at 37° C. for 0, 1, 3, or 6 hrs, or 150 pg (0.36 pmoles) of 1,25-D3 was added and incubated for 0 or 6 hrs. […] Acetonitrile (3 ml) was added to each tube after incubation to end all enzymatic activity, after which the 1,25-D3 was extracted. Tritiated 1,25-D3 was added to each tube to assess extraction efficiency. The preparations were cleaned by HPLC, and the samples were analyzed for 1,25-D3 content by RIA (Heartland Assays, Ames, Iowa) (Hollis et al., J. Steroid Biochem. Mol. Biol. 2007 103(3-5):473-6).

DU-145 cells = test: DU-145 cell proliferation (CELLTITER BLUE); type: cell-based, human; conditions: for Proliferation index (Mean ± SEM): 4 days, control = 100
Procedure: LNCaP cells (ATCC # CRL-1740) are malignant prostate cancer cells originally obtained from a lymph node of a person whose prostatic cancer had metastasized to the lymph node. LNCaP cells were grown in tissue culture using RPMI-1640 media with 10% fetal bovine serum. Wells of two 48-well tissue culture plates were seeded with 5000 LNCaP cells/well. […] Half the media was replaced with fresh media with treatments on the third day of the treatment period. By day 6 of treatment, wells of control untreated cells were approximately 60% confluent. The live cell numbers in each well at the end of treatment were assessed using the “CELLTITER BLUE”-brand assay kit (Promega Corp., Madison, Wis.). The assay is based on the ability of living cells to convert a redox dye (resazurin) into a fluorescent end product (resorufin). […] A similar study was performed using a second human-derived prostatic cancer cell line known as DU-145 (ATCC# HTB-81). […] Exp. Med. Biol. 1995 375:53-63). The DU-145 cells were propagated in Eagle's Minimum Essential Medium with 10% fetal bovine serum. The cells were treated in culture for just 4 days, with half the media replaced with fresh media on day 3 of treatment. Cells were 40% confluent at the end of treatment.

LNCaP cells = test: LNCaP cell proliferation (CELLTITER BLUE); type: cell-based, human; conditions: six days, control = 100
Procedure: LNCaP cells (ATCC # CRL-1740) are malignant prostate cancer cells originally obtained from a lymph node of a person whose prostatic cancer had metastasized to the lymph node. LNCaP cells were grown in tissue culture using RPMI-1640 media with 10% fetal bovine serum. Wells of two 48-well tissue culture plates were seeded with 5000 LNCaP cells/well. […] Half the media was replaced with fresh media with treatments on the third day of the treatment period. By day 6 of treatment, wells of control untreated cells were approximately 60% confluent. The live cell numbers in each well at the end of treatment were assessed using the “CELLTITER BLUE”-brand assay kit (Promega Corp., Madison, Wis.). The assay is based on the ability of living cells to convert a redox dye (resazurin) into a fluorescent end product (resorufin).

Structure (SMILES): C=C1/C(=C\C=C2/CCC[C@]3(C)[C@@H]([C@H](C)CCCC(C)(C)O[C@@H]4O[C@H](C(=O)O)[C@@H](O)[C@H](O)[C@H]4O)CC[C@@H]23)C[C@@H](O)C[C@@H]1O [β-gluc-1,25-D3, 25-β-glucuronide-1,25-dihydroxyvitamin D3]
- colon Cyp24 response relative to the equimolar dose of 1,25-D3 (Cyp24 [1]; 12 pmol per os): about 20 times
- increase in Cyp24 expression in the colon (Cyp24 [1]; 12 pmol per os): 60 fold
- increase in Cyp24 in the colon over control mice (Cyp24 [1]; 24 pmol per os): about 700 fold
- increase in Cyp24 expression in the colon (Cyp24 [1]; 48 pmol per os): > 400 fold
- Cyp24 expression in the duodenum, induction over control mice (Cyp24 [2]; 3 hours): 1300 fold
- Cyp24 expression in the duodenum, induction over control mice (Cyp24 [2]; 6 hours): 500 fold
- induction of Cyp24 in the duodenum versus analogous dose of 1,25-D3 (Cyp24 [2]; 6, 12, 24, 48 pmol per os, 6 hrs): consistently less effective than the analogous dose of 1,25-D3
- Plasma Calcium Mean ± SD ([3]; 14 ng/day continuous s.c. infusion): 10.63 ± 0.20
- increase in plasma calcium ([3]; 70 ng/day): no increase in plasma calcium
- Plasma Calcium Mean ± SD ([3]; 70 ng/day continuous s.c. infusion): 10.71 ± 0.15
- Plasma Calcium Mean ± SD ([3]; 250 ng/day continuous s.c. infusion): 11.02 ± 0.49
- Plasma Calcium Mean ± SD ([3]; 350 ng/day continuous s.c. infusion): 11.00 ± 0.25
- symptoms of hypercalcemia (feed intake) ([3]; 500 ng/day): no evidence of a reduction in feed intake or other symptoms
- Plasma Calcium Mean ± SD ([3]; 500 ng/day continuous s.c. infusion): 11.33 ± 0.38
- lowest dose inducing a statistically significant increase in plasma calcium levels ([3]; continuous s.c. infusion): 250 ng/day
- Significantly greater than control? Duncan's Multiple Range Test ([3]; 250 ng/day): Yes
- Significantly greater than control? Duncan's Multiple Range Test ([3]; 350 ng/day): Yes
- Significantly greater than control? Duncan's Multiple Range Test ([3]; 500 ng/day): Yes
- hypercalcemic effect, fold less than the native hormone ([3]; versus 1,25-D3): at least 4 fold
- Measured Free 1,25-dihydroxy vitamin D ([4]; 0 hrs incubation): 29 pg
- Measured Free 1,25-dihydroxy vitamin D ([4]; 1 hr incubation): 38 pg
- Measured Free 1,25-dihydroxy vitamin D ([4]; 3 hrs incubation): 63 pg
- Measured Free 1,25-dihydroxy vitamin D ([4]; 6 hrs incubation): 105 pg
- Proliferation index (Mean ± SEM) (DU-145 cells; DU-145, 20 nM): 90.3 ± 2.2
- Proliferation index (Mean ± SEM) (DU-145 cells; DU-145, 100 nM): 88.7 ± 2.8
- reducing cell proliferation versus native hormone (DU-145 cells; DU-145 cells): as active as the native hormone
- Proliferation index (Mean ± SEM) (LNCaP cells; 20 nM): 95.4 ± 2.4
- Proliferation index (Mean ± SEM) (LNCaP cells; 100 nM): 73.1 ± 9.5
